Results taken from PubChem BioAssay (NCI).
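Briefly, cells in 96-well plates were exposed to five compound concentrations for 48 h, and endpoints were estimated by linear interpolation. Abbreviation: GI50, concentration required for 50% inhibition of growth. TGI marks complete inhibition of growth.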

Experiments:
Assay in all cases: NCI tumour cell line growth inhibition, 48 h
[1] = test system: MDA-MB-435
[2] = test system: CCRF-CEM leukemia
[3] = test system: OVCAR-5 ovarian
[4] = test system: CAKI-1 renal
[5] = test system: DU-145 prostate
[6] = test system: UO-31 renal
[7] = test system: HL-60(TB) leukemia
[8] = test system: HOP-92 NSCLC

Structure (SMILES)	TGI [1] [µM]	TGI [2] [µM]	TGI [3] [µM]	GI50 [4] [µM]	TGI [4] [µM]	GI50 [5] [µM]	TGI [5] [µM]	GI50 [3] [µM]	GI50 [6] [µM]	TGI [6] [µM]	GI50 [7] [µM]	TGI [7] [µM]	GI50 [8] [µM]	TGI [8] [µM]
COc1ccc2nc3cc(Cl)ccc3c(NCCCNCc3cc(OC)c(OC)c(OC)c3)c2c1	3.24	> 100	3.11											
OC(c1cc2cc(Br)ccc2c2cc(Br)ccc12)C1CCCCN1 (stereo not given)			3.13	1.76	3.54	1.95	3.43	1.58	1.46	3.18	1.75	3.43	1.21	2.67
